Assay [1] concerns MIA PaCa-2 cells. As to the kind of experiment: Non-anchorage-dependent cell growth inhibition (spheroid 3D culture), MIA PaCa-2. The following applies: Homo sapiens, MIA PaCa-2, 144 h, read-out: MIA PaCa-2 IC50. Type of assay: cell-based. The protocol: Test Example 3: Evaluation of Non-Anchorage-Dependent Cell Growth Inhibitory Activity on Human KRAS G12V Mutant-Positive Pancreatic Cancer Line PA-TU-8902, Human KRAS G12D Mutant-Positive Pancreatic Cancer Line AsPC-1 or Human KRAS G12C Mutant-Positive Pancreatic Cancer Line MIA PaCa-2
The non-anchorage-dependent cell growth inhibitory activities of subject compounds were evaluated by spheroid 3D cell culture.
PA-TU-8902 cells, AsPC-1 cells or MIA PaCa-2 cells (RIKEN BRC, RCB2094) were seeded at 36 µL/well on a low-cell-adhesive round bottom 384-well plate (Prime Surface: from Sumitomo Bakelite) to give 5×10^2 cells per well. The PA-TU-8902 cells were under the same conditions as in Test Example 1-1, and the AsPC-1 cells were under the same conditions as in Test Example 1-2. For the MIA PaCa-2 cells, RPMI-1640 medium containing 10% fetal bovine serum was used in the presence of 5% CO2 at 37° C.
The next day, the subject compounds (6-9 points having final concentrations in the range of 3 μM to 0.3 nM) and DMSO, which was the solvent for the subject compounds, as a negative control were diluted 100-fold with a fresh medium and were each added at 4 μL per well. After culturing in the presence of 5% CO2 at 37° C. for six days, CellTiter-Glo 2.0 (from Promega) was added at 20 μL per well. After stirring with a plate mixer (from FINEPCR) at normal temperature for an hour, the luminescent signals were measured with ARVO X3 (from PerkinElmer).
With the signaling value in treatment with DMSO taken as 0% inhibition and with the signaling value in the medium alone without cells taken as 100% inhibition, the 50% inhibition values (IC50) were calculated by Sigmoid-Emax model nonlinear regression analysis.

Assay [2] addresses T1, RAS G12D (Homo sapiens, UniProt P01116, G12D).
T1 construct: host or cells: AsPC-1 human pancreatic cancer cells
As to the kind of experiment: RAS G12D degradation activity, Cell ELISA, AsPC-1. The following applies: AsPC-1 cells, 24 hours; read-out: DC50 (RAS G12D 50% degradation value). The class given is cell-based. As for the experimental part:
Test Example 1-2: Evaluation of RAS G12D Degradation Activity on Human KRAS G12D Mutant-Positive Pancreatic Cancer Line AsPC-1
The RAS G12D degradation activities of subject compounds were evaluated in the same manner as in Test Example 1-1 by measuring the expression levels of RAS G12D by a Cell ELISA method.
AsPC-1 cells (ATCC, CRL-1682) were seeded at 36 μL per well on a 384-well plate to give 2.0×10^4 cells per well. As for the cell culture conditions, RPMI-1640 medium (from Sigma-Aldrich) containing 10% fetal bovine serum was used in the presence of 5% CO2 at 37° C.
The next day, the subject compounds (10 points having final concentrations in the range of 3 μM to 0.1 nM) and DMSO, which was the solvent for the subject compounds, as a negative control were diluted 100-fold with a fresh medium and were each added at 4 μL per well, followed by culturing for 24 hours.
The next day, the procedures from the immobilization of the cells to before the addition of the blocking solution were performed by the same methods as in Test Example 1-1. A blocking solution (Intercept Blocking Buffer; from LI-COR Biosciences) was added at 20 μL per well. After allowing the plate to stand for 30 minutes at room temperature, the supernatant was removed by centrifugation. A solution obtained by diluting an anti-R-actin antibody (1,000-fold dilution) with the blocking solution was added to the wells of the positive control as a primary antibody, and a solution obtained by diluting an anti-Ras (G12D Mutant Specific) antibody (Ras (G12D Mutant Specific) (D8H7) Rabbit mAb; from Cell Signaling Technology; 1,000-fold dilution) and an anti-3-actin antibody (1,000-fold dilution) with the blocking solution was added to the other wells as primary antibodies, each at 15 μL per well. The plate was allowed to stand overnight at 4° C.
The next day, the supernatant was removed by centrifugation, and the plate was washed with PBS. The supernatant was removed by centrifugation, and a solution obtained by diluting an anti-rabbit IgG antibody and an anti-mouse IgG antibody 1,000-fold with the blocking solution was added at 15 μL per well as secondary antibodies. After allowing the plate to stand at room temperature for an hour, the supernatant was removed by centrifugation, and the plate was washed with PBS. After removing the supernatant, the plate was dried as it was with air at room temperature for two hours or more, and the 700-nm and 800-nm fluorescent signals were measured with Aerius.
With the RAS G12D signaling value at the time of addition of DMSO corrected with the signaling value of β-actin taken as 0% and with the RAS G12D signaling value under the conditions of staining with the anti-β-actin antibody alone taken as 100%, the RAS G12D degradation rates were calculated. The 50% degradation values (DC50) were calculated by Sigmoid-Emax model nonlinear regression analysis.
A general note: In an ELISA, binding on a coated surface is turned into a signal by an enzyme label.

Where [3] appears, read: KRAS G12C mutant-positive, 3D spheroid, six days, CellTiter-Glo 2.0.

Where two headings read alike, the source gives them in different places.

As usually defined, the IC50 is the midpoint of a concentration-inhibition curve. What is called DC50 is the concentration giving 50% degradation.

T1 sequence (P01116 1-188 isoform P01116-2 G12D): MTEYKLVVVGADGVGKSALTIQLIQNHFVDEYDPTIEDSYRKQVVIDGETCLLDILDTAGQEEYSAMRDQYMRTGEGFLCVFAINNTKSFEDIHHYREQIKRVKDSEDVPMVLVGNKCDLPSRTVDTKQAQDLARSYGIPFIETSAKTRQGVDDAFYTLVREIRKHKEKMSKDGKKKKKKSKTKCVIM

Consider `Cc1ncsc1-c1ccc([C@H](CO)NC(=O)[C@@H]2C[C@@H](O)CN2C(=O)[C@H](C(C)C)n2cc(-c3ccc(COc4c(-c5c(C)c(F)cc6[nH]ncc56)c(C5CC5)cc5c(N6CC[C@H]6C(N)=O)nc(OC6CCOCC6)nc45)cc3)nn2)cc1` [Example 35], for which the IC50 in assay [1] (setting [3]) amounted to 5 nM. Moreover, the DC50 in assay [2] was found to be 16 nM.

Regarding `CO[C@@H](C)COc1nc(NC2CN(C(=O)O[C@H]3C[C@@H](N(C)C)C3)C2)c2cc(C3CC3)c(-c3c(C)c(F)cc4[nH]ncc34)c(OCc3ccc(-c4cn([C@H](C(=O)N5C[C@H](O)C[C@H]5C(=O)N[C@@H](CO)c5ccc(N6CCOC6=O)cc5)C(C)C)nn4)cc3)c2n1` (atropisomer, axis not shown) [Example 4], the 50% inhibitory concentration (IC50) in assay [1] (setting [3]) was 22 nM. Moreover, the DC50 in assay [2] amounted to 20 nM.

As to `CO[C@@H](C)COc1nc(NC2CN(C(=O)O[C@H]3C[C@@H](N(C)C)C3)C2)c2cc(C3CC3)c(-c3c(C)c(F)cc4[nH]ncc34)c(OCc3ccc(-c4cn([C@H](C(=O)N5C[C@H](O)C[C@H]5C(=O)N[C@@H](CO)c5ccc(-n6cncn6)cc5)C(C)C)nn4)cc3)c2n1` (atropisomer, axis not shown; (M)) [Example 2, (1s,3R)-3-(dimethylamino)cyclobutyl 3-({(7M)-6-cyclopropyl-7-(6-fluoro-5-methyl-1H-indazol-4-yl)-8-{[4-(1-{(2S)-1-[(2S,4R)-4-hydroxy-2({(1R)-2-hydroxy-1-[4-(1H-1,2,4-triazol-1-yl)phenyl]ethyl}carbamoyl)pyrrolidin-1-yl]-3-methyl-1-oxobutan-2-yl}-1H-1,2,3-triazol-4-yl)phenyl]methoxy}-2-[(2S)-2-methoxypropoxy]quinazolin-4-yl}amino)azetidine-1-carboxylate], in assay [1] (setting [3]), the IC50 turned out to be 12 nM. The DC50 in assay [2] was determined as 5 nM.

With `Cc1ncsc1-c1ccc([C@H](CO)NC(=O)[C@@H]2C[C@@H](O)CN2C(=O)[C@H](C(C)C)n2cc(-c3ccc(COc4c(-c5c(C)c(F)cc6[nH]ncc56)c(C5CC5)cc5c(NCc6cccnc6)nc(OC6CCOCC6)nc45)cc3)nn2)cc1` [Example 29], in assay [1] (setting [3]), the IC50 turned out to be 5 nM. Further, the DC50 in assay [2] was 21 nM.

For the molecule `CO[C@@H](C)COc1cc(OC2CN(C(=O)CCCN(C)C)C2)c2cc(C3CC3)c(-c3c(C)c(F)cc4[nH]ncc34)c(OCc3ccc(-c4cn([C@H](C(=O)N5C[C@H](O)C[C@H]5C(=O)N[C@@H](CO)c5ccc(-n6cncn6)cc5)C(C)C)nn4)cc3)c2n1` (atropisomer, axis not shown; (M)) [Example 41, (4R)-1-[(2S)-2-(4-{4-[({(7M)-6-cyclopropyl-4-({1-[4-(dimethylamino)butanoyl]azetidin-3-yl}oxy)-7-(6-fluoro-5-methyl-1H-indazol-4-yl)-2-[(2S)-2-methoxypropoxy]quinolin-8-yl}oxy)methyl]phenyl}-1H-1,2,3-triazol-1-yl)-3-methylbutanoyl]-4-hydroxy-N-{(1R)-2-hydroxy-1-[4-(1H-1,2,4-triazol-1-yl)phenyl]ethyl}-L-prolinamide], the IC50 in assay [1] (setting [3]) turned out to be 23 nM. Further, the DC50 in assay [2] came out at 3 nM.

`CO[C@@H](C)COc1nc(NC2CN(C(=O)O[C@H]3C[C@@H](N(C)C)C3)C2)c2cc(C3CC3)c(-c3c(C)c(F)cc4[nH]ncc34)c(OCc3ccc(-c4cn([C@H](C(=O)N5C[C@H](O)C[C@H]5C(=O)N[C@@H](CO)c5ccc(-c6scnc6C)cc5)C(C)C)nn4)cc3)c2n1` (atropisomer, axis not shown; (M)) [Example 11, (1s,3R)-3-(dimethylamino)cyclobutyl 3-({(7M)-6-cyclopropyl-7-(6-fluoro-5-methyl-1H-indazol-4-yl)-8-{[4-(1-{(2S)-1-[(2S,4R)-4-hydroxy-2-({(1R)-2-hydroxy-1-[4-(4-methyl-1,3-thiazol-5-yl)phenyl]ethyl}carbamoyl)pyrrolidin-1-yl]-3-methyl-1-oxobutan-2-yl}-1H-1,2,3-triazol-4-yl)phenyl]methoxy}-2-[(2S)-2-methoxypropoxy]quinazolin-4-yl}amino)azetidine-1-carboxylate]: the IC50 in assay [1] (setting [3]) came out at 13 nM. Moreover, the DC50 in assay [2] turned out to be 4 nM.

`CNCCNC(=O)N1CC(Oc2nc(OC[C@H](C)OC)nc3c(OCc4ccc(-c5cn([C@H](C(=O)N6C[C@H](O)C[C@H]6C(=O)N[C@@H](CO)c6ccc(-c7scnc7C)cc6)C(C)C)nn5)cc4)c(-c4c(C)c(F)cc5[nH]ncc45)c(C4CC4)cc23)C1` (atropisomer, axis not shown) [Example 18]: the IC50 in assay [1] (setting [3]) was 26 nM. Moreover, the DC50 in assay [2] stood at 26 nM.

Turning to `CO[C@@H](C)COc1nc(N2CC(C#N)C2)c2cc(C3CC3)c(-c3c(C)c(F)cc4[nH]ncc34)c(OCc3ccc(-c4cn([C@H](C(=O)N5C[C@H](O)C[C@H]5C(=O)N[C@@H](CO)c5ccc(-c6scnc6C)cc5)C(C)C)nn4)cc3)c2n1` (atropisomer, axis not shown) [Example 20], the IC50 in assay [1] (setting [3]) was found to be 14 nM. Moreover, the DC50 in assay [2] amounted to 16 nM.

With `CO[C@@H](C)COc1cc(OC2CN(C(=O)C3CN(C)C3)C2)c2cc(C3CC3)c(-c3c(C)c(F)cc4[nH]ncc34)c(OCc3ccc(-c4cn([C@H](C(=O)N5C[C@H](O)C[C@H]5C(=O)N[C@@H](CO)c5ccc(-n6cncn6)cc5)C(C)C)nn4)cc3)c2n1` (atropisomer, axis not shown) [Example 42], in assay [1], the IC50 came to 9 nM. Also, in assay [2], the DC50 is 6 nM.

In the case of `CO[C@@H](C)COc1nc(OC2CN(C(=O)NCCN(C)C)C2)c2cc(C3CC3)c(-c3c(C)c(F)cc4[nH]ncc34)c(OCc3ccc(C(=O)N[C@H](C(=O)N4C[C@H](O)C[C@H]4C(=O)N[C@@H](CO)c4ccc(-c5scnc5C)cc4)C(C)C)cc3)c2n1` [Example 40, N-{4-[({(7M)-6-cyclopropyl-4-[(1-{[2-(dimethylamino)ethyl]carbamoyl}azetidin-3-yl)oxy]-7-(6-fluoro-5-methyl-1H-indazol-4-yl)-2-[(2S)-2-methoxypropoxy]quinazolin-8-yl}oxy)methyl]benzoyl}-L-valyl-(4R)-4-hydroxy-N-{(1R)-2-hydroxy-1-[4-(4-methyl-1,3-thiazol-5-yl)phenyl]ethyl}-L-prolinamide], in assay [1], the IC50 was 20 nM. In addition, the DC50 in assay [2] came to 47 nM.

Take `CO[C@@H](C)COc1cc(OC2CN(C(=O)N3CC(CN(C)C)C3)C2)c2cc(C3CC3)c(-c3c(C)c(F)cc4[nH]ncc34)c(OCc3ccc(-c4cn([C@H](C(=O)N5C[C@H](O)C[C@H]5C(=O)N[C@@H](CO)c5ccc(-c6ocnc6C)cc5)C(C)C)nn4)cc3)c2n1` (atropisomer, axis not shown; (M)) [Example 6, (4R)-1-[(2S)-2-(4-{4-[({(7M)-6-cyclopropyl-4-[(1-{3-[(dimethylamino)methyl]azetidine-1-carbonyl}azetidin-3-yl)oxy]-7-(6-fluoro-5-methyl-1H-indazol-4-yl)-2-[(2S)-2-methoxypropoxy]quinolin-8-yl}oxy)methyl]phenyl}-1H-1,2,3-triazol-1-yl)-3-methylbutanoyl]-4-hydroxy-N-{(1R)-2-hydroxy-1-[4-(4-methyl-1,3-oxazol-5-yl)phenyl]ethyl}-L-prolinamide]: the IC50 in assay [1] (setting [3]) turned out to be 7 nM. In assay [2], the DC50 worked out at 5 nM.

Values taken from patent US20260049072A1, “HETEROCYCLIC COMPOUND FOR INDUCING DEGRADATION OF MUTANT KRAS PROTEIN” (Astellas Pharma Inc., priority 2022, published 2026).
